Experiment [1] deals with AADH. As to the kind of experiment: Effect of inhibitors on the enzyme activity. Type of experiment: biochemical, Gluconobacter oxydans DSM No. 4025. The conditions noted are these: standard DCIP/PMS assay.
Experiment [2] concerns AADH. As to the kind of experiment: Effect of metal ions on the enzyme activity. Type of experiment: biochemical, Gluconobacter oxydans DSM No. 4025. The conditions noted are these: standard DCIP/PMS assay. From the text: Using the assay procedure described under section 1), the effect of various metal ions on the enzyme activity was examined. […] The others affected the enzyme activity strongly or moderately.

The test system of experiment [3] is AADH. Description: Measurement of the Km (Michaelis constant) values, DCIP/PMS enzyme assay. Type of experiment: biochemical, Gluconobacter oxydans DSM No. 4025. The settings on record: mixture of DCIP and PMS as electron acceptors; 25° C., pH 8.0; read-out: apparent Michaelis constant (Km).
Experiment [4] relates to AADH. The settings on record: substrate used instead of L-sorbose.
Experimental: The enzyme assay was performed at 25° C. by measuring the decrease of absorbance at 600 nm of DCIP with a spectrophotometer (UVIKON 810, Kontron K.K.). One unit of the enzyme activity was defined as the amount of the enzyme which catalyzed the reduction of 1 μmole of DCIP per minute. The extinction coefficient of DCIP at pH 8.0 was taken as 15 mMol^-1. The standard reaction mixture (1.0 ml) contained 0.1 mMol DCIP, 1 mMol PMS, 125 mMol L-sorbose, 50 mMol Tris-malate-NaOH buffer (pH 8.0), and 3-8 μl of the enzyme solution. A reference cuvette contained all the above components except the substrate.
The substrate specificity of AADH was determined using the same enzyme assay method as described under section 1) above, except that various further substrates were used instead of L-sorbose.

We go through ten compounds from patent publication US5916785A, “Process of oxidizing alcohols or carboxylic acids with alcohol/aldehyde dehydrogenase from gluconobacter” (Roche Vitamins Inc., priority 1992, dated 1999).

One may read the Km as the concentration of substrate that gives half-maximal velocity.

For the compound `O=C(O)CN(CCOCCOCCN(CC(=O)O)CC(=O)O)CC(=O)O` [EGTA, ethylene glycol bis(beta-aminoethylether)-N,N,N',N'-tetraacetic acid], the “effect of inhibitors on the AADH enzyme activity” value with AADH [1] is “strongly inhibited”. Turning to `[Mn+2]` [Mn^2+], the “effect of metal ions on the AADH enzyme activity” value (shortened to “effect of metal ions”) in the experiment with AADH [2] was “strong inhibitors”. For the compound `CCCO` [1-propanol], the Km in the experiment with AADH [3] worked out at 2 mM. With `[Cu+2]` [Cu^2+], in the experiment on AADH [2], the “effect of metal ions” value is “strong inhibitors”. Turning to `O=C(O)CN(CCN(CC(=O)O)CC(=O)O)CC(=O)O` [EDTA, Ethylenediamine tetraacetic acid], in the experiment with AADH [1], the “effect of inhibitors on the AADH enzyme activity” value is “strongly inhibited”. For the compound `[Fe+3]` [Fe^3+], the “effect of metal ions” value in the experiment with AADH [2] is “strong inhibitors”. Consider `CO` [methanol], for which the “oxidation as substrate by AADH” value in the experiment on AADH [4] was “hardly oxidizes”.

Turning to `CCO` [ethanol], the “oxidation as substrate by AADH” value in the experiment on AADH [4] was “good substrate”. In the case of `[Mg+2]` [Mg^2+], in the experiment with AADH [2], the “effect of metal ions” value was “did not affect”. On the same count and under the same terms, to `[Ca+2]` [Ca^2+] belongs “did not affect”.
